# Data from patent publication US5151264A, “Particulate vector useful in particular for the transport of molecules with biological activity and process for its preparation” (priority 1988, dated 1992).
# Legend:
# Bacillus subtilis = assay: Inhibition of Bacillus subtilis in agar medium / Petri dish (agar cylinders method); assay type: cell-based
# Description: (§1) Butirosin, like erythromycin, is determined by measuring the lysis zones (agar cylinders method) in an agar medium (bioMerieux) inoculated with 1000 cfu/ml of Bacillus subtilis and incubated at 37° C. for 18 hours. The bioMerieux agar medium consists of 6 g of bio-Gelytone, 3 g of yeast extract, 1.5 g of beef extract and 15 g of agar per 1 l of distilled water. The pH of the medium is adjusted to 9.
# (§2) The serum samples are deposited in the wells made in the agar medium (30 μl/well). Reference solutions representing known amounts of antibiotic are also deposited in the dish.
# [1] = Pharmacokinetics in plasma of free and encapsulated antibiotics in rabbits; assay type: in vivo, male rabbits of the "White New Zealand" type
# Text: In order to evaluate the influence of the encapsulation on the pharmacokinetics of two antibiotics, butirosin according to Example 6 and erythromycin according to Example 13, we carried out the determination in plasma as a function of time for these two antibiotics after administration in the free form and in the encapsulated form.
# The injections are given subcutaneously and intravenously to male rabbits of the "White New Zealand" type weighing approximately 3 kg. The samples are taken at the lateral vein of the ear in amounts of 200 μl of blood/sample. The blood is immediately centrifuged at 8000 rpm for 15 min. The serum is withdrawn and stored at 4° C. until used.
# as §1, §2
# The amounts injected are 1 ml containing 9 mg of butirosin in the free or encapsulated form.
# 4 ml of a physiological solution containing 5 mg of butirosin either in the free form or encapsulated in 100 mg of BVSM are injected. The solution is prepared from 8 g/l NaCl, 0.2 g/l KCl, 0.1 g/l anhydrous CaC12 (sic), 0.1 g/l MgCl2, 3.18 g/l Na2 HPO4 and 0.2 g/l KH2 PO4, adjusted to pH 7.4.
# The injections are made slowly in the external vein of the ear after vasodilatation with warm water and disinfection with ethanol at […].
# The amounts injected are 1 ml containing 15 mg of free or encapsulated erythromycin. For reasons of solubility, free erythromycin is dissolved in a water/ethanol (85:15) mixture.
# [2] = Bacillus subtilis, 18 h, read-out: Diameter (standard range)
Molecule,zone of inhibition at 10 µg/mL (Bacillus subtilis; [2]) [mm],zone of inhibition at 25 µg/mL (Bacillus subtilis; [2]) [mm],zone of inhibition at 100 µg/mL (Bacillus subtilis; [2]) [mm],zone of inhibition at 250 µg/mL (Bacillus subtilis; [2]) [mm],zone of inhibition at 1000 µg/mL (Bacillus subtilis; [2]) [mm],diffusion in the plasma / plasma level ([1]; erythromycin),"diffusion in the plasma / plasma level ([1]; erythromycin, listed as Free erythromycin)",Diameter (standard range) (Bacillus subtilis; 0.5 μg/ml) [mm],Diameter (standard range) (Bacillus subtilis; 1 μg/ml) [mm],Diameter (standard range) (Bacillus subtilis; 2 μg/ml) [mm],Diameter (standard range) (Bacillus subtilis; 5 μg/ml) [mm],Diameter (standard range) (Bacillus subtilis; 10 μg/ml) [mm],Diameter (standard range) (Bacillus subtilis; 20 μg/ml) [mm],Diameter (standard range) (Bacillus subtilis; 50 μg/ml) [mm],"diffusion into the plasma and elimination ([1]; rabbit, in vivo, iv)","diffusion in the plasma / plasma level ([1]; rabbit, in vivo, sc)","time after which eliminated ([1]; rabbit, in vivo, sc) [h]"
"CC[C@H]1OC(=O)[C@H](C)[C@@H](O[C@H]2C[C@@](C)(OC)[C@@H](O)[C@H](C)O2)[C@H](C)[C@@H](O[C@@H]2O[C@H](C)C[C@H](N(C)C)[C@H]2O)[C@](C)(O)C[C@@H](C)C(=O)[C@H](C)[C@@H](O)[C@]1(C)O [Erythromycin, erythromycin]",26,29,31,33,37,diffuses relatively slowly in the plasma,higher initial level to be achieved in the plasma than the encapsulated form,–,–,–,–,–,–,–,–,–,–
butirosin,–,–,–,–,–,–,–,14,17,19,22,24,26,28,diffuses very rapidly into the plasma and is also eliminated very rapidly,diffuses very rapidly in the plasma,6
